Key:
Type in all cases: cell-based, Echinococcus multilocularis
[1] = tested on: E. multilocularis metacestodes; assay: Succinate concentrations in culture supernatants (malate dismutation activity); conditions: 10 μM, 5 days
Procedure: Both compounds were tested either alone or in combination at 10 μM with the above-described PGI assay for 5 days for their activity against E. multilocularis metacestodes. PGI assays were done in triplicates and two times independently. […] To assess direct effects on the MD, succinate levels were measured in the supernatants of the PGI assay, as described below. To determine whether differences between groups were significant, data was subjected to student's t-test analysis and P-values below 0.05 are given.
Succinate measurements in supernatants of drug-treated E. multilocularis metacestodes was performed with the “Succinic Acid Assay Kit” (Megazyme, Bray, Ireland). […] 20 μL of each diluted (1:20) sample or standard was used in triplicate for succinate measurements in 96-well plates (flat bottom, Greiner Bio-One GmbH, Frickenhausen, Germany). The reaction mix buffer was prepared as described in the supplier manual: per well 180 μL H2O, 20 μL solvent 1 (buffer, pH 8.4, sodium azide 0.02% w/v), 20 μL solvent 2 (NADH plus stabilizer), 20 μL solvent 3 (ATP, PEP, and CoA) and 2 μL solvent 4 (pyruvate kinase plus L-lactate dehydrogenase suspension) were added. After a 180 s pre-incubation time, a first measurement at 340 nm was done on an EnSpire multilabel plate reader (PerkinElmer Life Sciences, Schwerzenbach, Switzerland). 10 μL solvent 5 (succinyl-CoA synthetase suspension; 1:10 diluted) were then added to each well and the plate was read at 340 nm for 1 h every minute. […] Succinate levels are shown as mean values with standard deviations of biological triplicates. To determine whether differences between groups were significant, data was subjected to student's t-test analysis and P-values below 0.05 are given.

[2] = tested on: E. multilocularis GL cells (isolate H95); assay: GL cell viability assay (CellTiter-Glo), isolate H95; conditions: isolate H95; 0.1 μM; 5 days; nitrogen atmosphere; mean (SD); active if <30%
Procedure: (§1) To assess the in vitro efficacy of ELQs against E. multilocularis, (a) the damage-marker phosphoglucose isomerase (PGI) assay was applied against metacestodes, and (b) the germinal layer (GL) cell viability assay was applied to measure effects on isolated GL cells. Both assays are described in more detail below. The drug testing strategy was as follows: PGI assay was first conducted for overview screening at 10 μM with the parasite isolates H95 and Sval. The GL cell viability assay was performed at 0.1 μM with both isolates H95 and Sval.
(§2) The isolation of E. multilocularis GL cells was done as described previously ([17]) with minor modifications. Fifteen units of GL cells were distributed to each well of a 384 well plate in a total volume of 12.5 μL conditioned medium. The different ELQs were added to the wells to 0.1 μM, in quadruplicates. As a negative control 0.1% DMSO was used. The 384-well plate was incubated for 5 days at 37°C under humid nitrogen atmosphere. Thereafter, viability of the GL cells under different drug treatments was assessed by CellTiter-Glo® (Promega AG, Dübendorf, Switzerland). The CellTiter-Glo reagent was complemented with 1% Tx-100. The luciferase bioluminescence was measured at 530 nm by using the Enspire multilabel reader (PerkinElmer Life Sciences, Schwerzenbach, Switzerland). Using Microsoft Excel, the blank values were subtracted from the experimental values and the relative viability compared to DMSO was calculated. Viabilities were calculated as mean values and standard deviations for each quadruplicate.

[3] = tested on: E. multilocularis GL cells (isolate Sval); assay: GL cell viability assay (CellTiter-Glo), isolate Sval; conditions: isolate Sval; 0.1 μM; 5 days; nitrogen atmosphere; mean (SD); active if <30%
Procedure: as §1, §2

[4] = tested on: E. multilocularis metacestodes (isolate H95); assay: PGI assay (damage marker release), metacestodes, isolate H95; conditions: isolate H95, 5 days
Procedure: as §1
(§3) The PGI assay measures the amount of PGI that metacestodes release into the medium when damaged ([17], [32]). The purification and in vitro drug incubation of E. multilocularis metacestodes was conducted according to Stadelmann et al. ([32]). In short, cultures were applied for in vitro drug testing at the age of 6-8 weeks. E. multilocularis metacestodes were therefore purified by the addition of 2% saccharose and washed extensively with PBS. Purified metacestodes were suspended 1:3 with DMEM (without phenol red, supplemented with 100 U/mL penicillin, 100 μg/mL streptomycin) and distributed in 48-well plates (1 mL/well, thus 300 μL pure metacestode vesicles per well). […] The corresponding DMSO concentration was used as negative control and Tx-100 (0.1% final concentration) was used for total damage (positive control). […] After 5 days, relative PGI activities were measured and calculated as percentage of the Tx-100 control as described previously in Rufener et al. ([17]). They were calculated as mean values and standard deviations for each triplicate. […] EC50 measurements were performed twice, and averages and standard deviations of these repeated tests are given.

[5] = tested on: E. multilocularis metacestodes (isolate Sval); assay: PGI assay (damage marker release), metacestodes, isolate Sval; conditions: isolate Sval, 10 μM
Procedure: as §1, §3

[6] = tested on: E. multilocularis metacestodes; assay: PGI assay, single and combination treatment under normoxic and anaerobic conditions; conditions: 5 days
Procedure: The PGI assay measures the amount of PGI that metacestodes release into the medium when damaged ([17], [32]). The purification and in vitro drug incubation of E. multilocularis metacestodes was conducted according to Stadelmann et al. ([32]). In short, cultures were applied for in vitro drug testing at the age of 6-8 weeks. E. multilocularis metacestodes were therefore purified by the addition of 2% saccharose and washed extensively with PBS. Purified metacestodes were suspended 1:3 with DMEM (without phenol red, supplemented with 100 U/mL penicillin, 100 μg/mL streptomycin) and distributed in 48-well plates (1 mL/well, thus 300 μL pure metacestode vesicles per well). […] The corresponding DMSO concentration was used as negative control and Tx-100 (0.1% final concentration) was used for total damage (positive control). […] After 5 days, relative PGI activities were measured and calculated as percentage of the Tx-100 control as described previously in Rufener et al. ([17]). They were calculated as mean values and standard deviations for each triplicate. EC50 calculations were calculated based on logit-log transformed values in Microsoft Office Excel 2010. EC50 measurements were performed twice, and averages and standard deviations of these repeated tests are given.
For double inhibition of the mitochondrial energy pathways of E. multilocularis, quinazoline as an inhibitor of the anaerobic MD ([29]) was applied in combination with ELQ-400 as an inhibitor of the ETC. Both compounds were tested either alone or in combination at 10 μM with the above-described PGI assay for 5 days for their activity against E. multilocularis metacestodes. PGI assays were done in triplicates and two times independently. […] Results of the assays were calculated as mean values and standard deviations for each biological triplicate were calculated as relative percentage to the Tx-100 control. To assess direct effects on the MD, succinate levels were measured in the supernatants of the PGI assay, as described below. […]

SMILES: Cc1[nH]c2cc(F)cc(F)c2c(=O)c1-c1ccc(Oc2ccc(OC(F)(F)F)cc2)cc1 [ELQ-400]
- Release of succinate by metacestodes compared to DMSO control ([1]; anaerobic): significantly enhanced
- Release of succinate by metacestodes compared to DMSO control ([1]; normoxic): significantly enhanced
- GL cells, viability via ATP measurements, relative to DMSO control [2]: 8.4 (4.8) %
- GL cells, viability via ATP measurements, relative to DMSO control [3]: 14.6 (8.6) %
- Metacestodes, PGI assay, relative to positive control Tx-100 ([4]; 10 μM, normoxic, mean (SD) of triplicates, active if >20%): 21.4 (2.5) %
- EC50 ([4]; PGI assay, range tested 30–0.12 μM, mean (SD) of two tests, read-out: EC50 metacestodes): 1.06 µM
- Metacestodes, PGI assay, relative to positive control Tx-100 ([5]; 5 days, normoxic, mean (SD) of triplicates, active if >20%): 27 (10.5) %
- Activity in PGI assay (activity call) ([5]; threshold >20% of Tx-100): activity
- PGI release of metacestodes relative to Tx-100 ([6]; 10 μM each, anaerobic (0% O2)): significantly reduced
- PGI release of metacestodes relative to Tx-100 ([6]; 10 μM, normoxic (21% O2)): active

Source: publication PMC9388906, “Dual inhibition of the Echinococcus multilocularis energy metabolism” (Frontiers in Veterinary Science, 2022)
